We go through three compounds from US6610883B1, “Compounds having selective activity for retinoid X receptors, and means for modulation of processes mediated by retinoid X receptors” (Ligand Pharmaceuticals, Inc., priority 1992, dated 2003).

Experiment [1] addresses T1, RARγ (Homo sapiens, UniProt P13631).
T1 sequence (P13631 1-454): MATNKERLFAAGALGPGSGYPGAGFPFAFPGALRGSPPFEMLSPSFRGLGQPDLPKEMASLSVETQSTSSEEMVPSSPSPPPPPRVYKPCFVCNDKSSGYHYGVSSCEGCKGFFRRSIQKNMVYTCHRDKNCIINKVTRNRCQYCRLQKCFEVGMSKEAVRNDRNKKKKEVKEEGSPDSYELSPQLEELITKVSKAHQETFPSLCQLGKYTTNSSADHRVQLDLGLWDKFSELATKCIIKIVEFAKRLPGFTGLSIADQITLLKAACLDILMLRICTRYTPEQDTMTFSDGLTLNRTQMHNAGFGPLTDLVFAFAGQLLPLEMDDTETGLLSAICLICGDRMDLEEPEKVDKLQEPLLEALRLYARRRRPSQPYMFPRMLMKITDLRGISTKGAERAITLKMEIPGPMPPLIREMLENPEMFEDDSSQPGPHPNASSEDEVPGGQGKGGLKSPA
Put plainly: Co-transfection (cis-trans) assay in CV-1 cells, RARγ. The class given is cell-based. Further details: expressed in transfected cells; host or cells: CV-1 (monkey kidney). The text has this: (§1) The co-transfection assay provides a mechanism to evaluate the ability of a compound to modulate the transcription response initiated by an intracellular receptor. […] Berger, et al., J. Steroid Biochem Molec.
(§2) Briefly, the co-transfection assay involves the introduction of two plasmids by transient transfection into a retinoid receptor-negative mammalian cell background. The first plasmid contains a retinoid receptor cDNA and directs constitutive expression of the encoded receptor. The second plasmid contains a cDNA that encodes for a readily quantifiable protein, e.g., firefly luciferase or chloramphenicol acetyl transferase (CAT), under control of a promoter containing a retinoid acid response element, which confers retinoid dependence on the transcription of the reporter. In this co-transfection assay, all retinoid receptors respond to all-trans-retinoic acid in a similar fashion. This assay can be used to accurately measure efficacy and potency of retinoic acid and synthetic retinoids as ligands that interact with the individual retinoid receptor subtypes.
(§3) Accordingly, synthetic retinoid compounds of the current invention were evaluated for their interaction with retinoid receptor subtypes using the co-transfection assay in which CV-1 cells were co-transfected with one of the retinoid receptor subtypes, a reporter construct, and an internal control to allow normalization of the response for transfection efficiency. The following example is illustrative.
(§4) Retinoids: All-tans-retinoic acid (RA) and 13-cis-retinoic acid (13-cis-RA) were obtained from Sigma. […] Retinoids were dissolved in dimethylsulfoxide for use in the transcriptional activation assays.
(§5) Co-transfection Assay In CV-1 Cells: A monkey kidney cell line, CV-1, was used in the cis-trans assay. Cells were transfected with two plasmids. […] The cis-vector contains an easily assayable gene product, in this case the firefly luciferase, coupled to a retinoid-responsive promoter, i.e., an RARE or RXRE. Addition of retinoic acid or an appropriate synthetic retinoid results in the formation of a retinoid-RAR or -RXR complex that activates the expression of luciferase gene, causing light to be emitted from cell extracts. The level of luciferase activity is directly proportional to the effectiveness of the retinoid-receptor complex in activating gene expression. This sensitive and reproducible co-transfection approach permits the identification of retinoids that interact with the different receptor isoforms.
(§6) Cells were cultured in DMEM supplemented with 10% charcoal resin-stripped fetal bovine serum, and experiments were conducted in 96-well plates. […] Cells were transfected for 6 h and then washed to remove the precipitate. The cells were then incubated for 36 h with or without retinoid. After the transfection, all subsequent steps were performed on a Beckman Biomek Automated Workstation. […] All determinations were performed in triplicate in two independent experiments and were normalized for transfection efficiency by using β-galactosidase as the internal control. […] Efficacy values less than 5% are not statistically different than the 0% background.

Experiment [2] concerns the target T2, RARβ (Homo sapiens, UniProt P10826).
T2 sequence (P10826 1-455): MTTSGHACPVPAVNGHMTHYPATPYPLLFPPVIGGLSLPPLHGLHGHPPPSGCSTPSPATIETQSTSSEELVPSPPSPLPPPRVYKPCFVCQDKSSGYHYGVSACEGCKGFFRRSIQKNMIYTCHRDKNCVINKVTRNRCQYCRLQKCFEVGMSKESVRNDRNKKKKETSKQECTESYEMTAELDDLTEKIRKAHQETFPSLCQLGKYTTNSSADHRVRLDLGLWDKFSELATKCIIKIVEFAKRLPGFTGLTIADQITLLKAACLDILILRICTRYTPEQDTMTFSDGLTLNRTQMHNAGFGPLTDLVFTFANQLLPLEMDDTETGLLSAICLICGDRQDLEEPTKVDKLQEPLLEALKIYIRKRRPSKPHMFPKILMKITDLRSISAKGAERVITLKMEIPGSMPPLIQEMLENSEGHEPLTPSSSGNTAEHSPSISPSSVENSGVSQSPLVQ
Put plainly: Radioligand displacement binding, RARβ.
Procedure: (§8) The binding parameters of receptors expressed in baculovirus systems and mammalian systems are essentially identical.
(§9) By testing the abilities of various synthetic retinoids to compete with the radiolabeled retinoic acid for binding to various receptor isoforms, the ability of the compounds to directly interact with the receptor can be examined, and the relative dissociation constant for the receptor itself can be determined.
(§10) The Kd values were determined by application of the Cleng-Prusoff equation. These values were based on a determination of the IC50 value as determined graphically from a log-logit plot of the data.

In experiment [3] the target is T3, RARα (Homo sapiens, UniProt P10276).
T3 sequence (P10276 1-462): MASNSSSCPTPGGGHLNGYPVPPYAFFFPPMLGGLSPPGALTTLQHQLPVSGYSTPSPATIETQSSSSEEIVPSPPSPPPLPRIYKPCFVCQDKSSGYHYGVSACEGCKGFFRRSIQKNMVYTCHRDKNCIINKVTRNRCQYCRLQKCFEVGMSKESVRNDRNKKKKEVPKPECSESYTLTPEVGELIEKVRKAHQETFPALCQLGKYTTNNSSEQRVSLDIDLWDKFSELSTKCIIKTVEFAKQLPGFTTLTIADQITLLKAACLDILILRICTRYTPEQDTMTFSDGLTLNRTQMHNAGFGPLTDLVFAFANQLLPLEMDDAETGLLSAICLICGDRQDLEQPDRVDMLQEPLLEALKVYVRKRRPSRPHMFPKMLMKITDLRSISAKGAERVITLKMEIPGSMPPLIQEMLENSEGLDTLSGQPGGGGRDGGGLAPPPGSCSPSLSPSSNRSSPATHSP
Put plainly: Radioligand displacement binding, RARα. Further details: made in house. Particulars: displacement of radiolabeled retinoic acid, read-out: Binding (Kd50 nM). In general terms: Displacement assays read how much labelled ligand stays bound in the presence of the test substance.
Procedure: as §8, §9, §10

Experiment [4] addresses T3, RARα. Briefly: Co-transfection (cis-trans) assay in CV-1 cells, RARα. Format: cell-based. Also on record: expressed in transfected cells; host or cells: CV-1 (monkey kidney).
Source text: as §1, §2, §3, §4, §5, §6

Experiment [5] addresses T2, RARβ. Briefly: Co-transfection (cis-trans) assay in CV-1 cells, RARβ. Format: cell-based. Also on record: expressed in transfected cells; host or cells: CV-1 (monkey kidney).
Source text: as §1, §2, §3, §4, §5, §6

Experiment [6] deals with T1, RARγ. Put plainly: Radioligand displacement binding, RARγ.
Procedure: as §8, §9, §10
A further experiment deals with T4, RXRβ/VDR (UniProt P11473+P28704).
T4 construct: expressed in transfected cells; host or cells: CV-1
T4 sequence (P28704 whole entry): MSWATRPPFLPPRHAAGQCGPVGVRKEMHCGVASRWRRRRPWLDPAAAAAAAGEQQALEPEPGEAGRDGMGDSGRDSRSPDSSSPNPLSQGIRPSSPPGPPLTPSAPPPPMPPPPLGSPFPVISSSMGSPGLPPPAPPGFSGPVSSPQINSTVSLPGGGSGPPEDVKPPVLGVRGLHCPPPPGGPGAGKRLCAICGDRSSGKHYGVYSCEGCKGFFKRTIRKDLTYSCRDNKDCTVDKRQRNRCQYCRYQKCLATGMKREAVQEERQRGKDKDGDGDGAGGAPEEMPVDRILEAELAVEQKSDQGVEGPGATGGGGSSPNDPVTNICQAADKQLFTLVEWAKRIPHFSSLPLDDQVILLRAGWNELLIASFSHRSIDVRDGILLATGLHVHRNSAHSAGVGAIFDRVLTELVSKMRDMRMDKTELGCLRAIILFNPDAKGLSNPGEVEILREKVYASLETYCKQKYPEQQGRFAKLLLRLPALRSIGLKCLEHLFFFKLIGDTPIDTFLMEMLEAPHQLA
T4 sequence (P11473 whole entry): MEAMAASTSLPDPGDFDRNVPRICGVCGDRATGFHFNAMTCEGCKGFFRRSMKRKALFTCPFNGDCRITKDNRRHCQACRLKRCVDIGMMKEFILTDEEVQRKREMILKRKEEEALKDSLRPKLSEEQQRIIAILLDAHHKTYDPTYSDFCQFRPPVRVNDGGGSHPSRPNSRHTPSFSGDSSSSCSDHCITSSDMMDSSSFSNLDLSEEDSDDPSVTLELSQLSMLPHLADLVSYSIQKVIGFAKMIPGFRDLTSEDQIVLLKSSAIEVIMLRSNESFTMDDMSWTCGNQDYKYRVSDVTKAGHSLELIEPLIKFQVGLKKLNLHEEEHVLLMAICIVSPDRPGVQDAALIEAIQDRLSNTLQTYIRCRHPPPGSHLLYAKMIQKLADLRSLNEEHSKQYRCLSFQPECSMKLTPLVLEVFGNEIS
Briefly: Co-transfection of RXRβ and VD receptors in CV-1 cells. The class given is cell-based.

The test system of a further experiment is RXRα/PPAR. Put plainly: Co-transfection of RXRα and PPAR in HepG2 cells. The class given is cell-based. The source says:
Specifically, peroxisome proliferator-activated receptor (PPAR) is a member of the intracellular receptor super family that plays a role in the modulation of lipid homeostasis. […] These agents, called peroxisome proliferators, have been used in man as hypolipidemic agents.

The subject of experiment [7] is RPMI18226, a multiple myeloma. Briefly: Cell growth of RPMI18226. Format: cell-based, human. As to conditions: RPMI18226, cell number and growth in semi-solid medium. The text has this:
(§7) The effects on growth of these cells were monitored by evaluation of cell number, and also by evaluation of growth in semi-solid medium for the RPMI18226 cell line. […] The therapeutic index is defined as the ratio of efficacy to toxicity of a compound.

For experiment [8], the system named is transglutaminase activity in the HL60 cells. Briefly: Transglutaminase induction in HL60 cells.
The next experiment deals with HL60 cells. Briefly: HL60 differentiation (NBT reduction). The class given is cell-based.
The conditions of experiment [9]: rats. How it is done:
Male Sprague-Dawley rats (160-200 gram) were obtained from Harlan. Animals were fed standard laboratory diets (Harlan/Teklad) and kept in an environmentally controlled animal house with a light period lasting from 6 a.m. to 6 p.m. Animals were treated with drugs prepared as suspensions in olive oil.
[…]
Plasma total cholesterol was measured enzymatically utilizing Boeringer Mannheim Diagnostics High Performance Cholesterol Methods with an ABBOTT VP Bichromatic Analyzer. cholesterol was measured after preparation of the HDL-containing fraction by heparin-manganese precipitation of plasma. HDL-cholesterol in this fraction was estimated as mentioned earlier. All HDL separations were checked for contamination by other lipoproteins with agarose gel electrophoresis.

The next experiment has as its system apoA1. Briefly: Circulating apoA1 in rats (Western Blot). As to conditions: 3 mg/kg orally, daily for four days. For orientation: Immunoblotting shows a protein as a band on a membrane.
Experiment [10] has as its system ME180, a squamous cell carcinoma. Put plainly: Cell growth of ME180. Format: cell-based, human. Particulars: ME180, cell number.
Source text: as §7

Setting [11] is: CV-1, maximal response relative to all-trans-retinoic acid at 10^−5 M, read-out: Efficacy.
Where [12] appears, read: CV-1 cells, luciferase reporter, 36 h, read-out: Potency.

Bounds are passed on as bounds.

Source text for apoA1: Serum samples were taken and analyzed by Western Blot using antisera specific to rat apoA1.

As to `C=C(c1ccc(C(=O)O)cn1)c1cc2c(cc1C)C(C)(C)CCC2(C)C` [TPNEP (58), 2-[1-(3,5,5,8,8-pentamethyl-5,6,7,8-tetrahydro-2-naphthyl)ethenyl]pyridine-5-carboxylic acid], the Emax at 10 µM is 24% at RARγ [1] (setting [11]), less than 2% at RARα [4] (setting [11]) and less than 2% at RARβ [5] (setting [11]). Moreover, the values for the EC50 on RARγ [1] (setting [12]), at RARα [4] (setting [12]) and at RARβ [5] (setting [12]) were 1.5 µM, more than 10 µM and more than 10 µM, respectively. Also, the values for the Kd at RARβ [2], at RARα [3] and on RARγ [6] were 4.9 µM, 7.8 µM and 6 µM, respectively.

With 1,25-dihydroxy-vitamin D, the “Normalized Response (%)” value at RXRβ/VDR is listed as 100%.

Regarding `C=C(c1ccc(C(=O)O)cc1)c1cc2c(cc1C)C(C)(C)CCC2(C)C` [3-methyl-TTNEB, 4-[1-(3,5,5,8,8-pentamethyl-5,6,7,8-tetrahydro-2-naphthyl)ethenyl]benzoic acid], in the experiment on RXRα/PPAR, the “Normalized Response (%)” value worked out at 90%. Moreover, in experiment [7], the “Effect on cell growth” value is “inhibit cell growth in a concentration-dependent manner”. Moreover, in experiment [8], the “Induction of transglutaminase activity” value was “induce transglutaminase activity in the HL60 cells”. Moreover, in the experiment with HL60 cells (HL60), the “Induction of differentiation (NBT reduction)” value is reported as “not to induce undue differentiation”. In addition, the EC50 in the experiment on HL60 cells (Homo sapiens, HL-60, read-out: EC50 for mediated differentiation) is more than 1000 µM. The HDL levels entry in experiment [9] (100 mg/kg i.p., 4 days) is “substantial and statistically significant increases in HDL levels”. Also, the “Development of tolerance to pharmacological action” value in experiment [9] (30 day p.o. study, 10, 30, or 100 mg/kg) was “did not indicate development of tolerance”. Moreover, in [9] (four days), the Total cholesterol entry is listed as “showed an increase due to the increase of the HDL-cholesterol fraction” and the Triglycerides result is recorded as “either no change or a slight decrease”. Also, the “Lowest dose with significant increase of HDL-cholesterol” value in experiment [9] (i.p., four days) was 0.3 mg/kg. The “Increase of plasma HDL-cholesterol” value in experiment [9] (optimally efficacious dose) was “greater than 60%”. The “Circulating apoA1 level” value in the experiment on apoA1 is “significant increase in circulating apoA1 level”. Also, in experiment [10], the “Effect on cell growth” value is recorded as “inhibit cell growth in a concentration-dependent manner”.
